# Experimental data as given in patent US7727986B2, “Pesticide pyrimidinyloxy substituted phenylamidine derivatives” (Bayer CropScience AG, priority 2005, dated 2010).
# How the values were obtained:
# [1] = logP by HPLC on reversed-phase column (C 18), EEC Directive 79/831 Annex V.A8; format: physicochemical; conditions: for chromatographic logP: reversed-phase C18 HPLC column, value in preparation example text, read-out: log P (pH 2.3)
# Experimental: Temperature: 40° C.; Mobile phases: 0.1% aqueous formic acid and acetonitrile; linear gradient from 10% acetonitrile to 90% acetonitrile.
# Phaedon cochleariae = assay: In vivo protective test on Phaedon cochleariae (PHAECO); conditions: Chinese cabbage leaf-disks sprayed, infested with mustard beetle larvae; concentration not given
# Experimental: In vivo Protective Test on Phaedon cochleariae (PHAECO)
# (§1) To produce a suitable preparation of active compound, 1 part by weight of active compound is mixed with the stated amount of solvent and emulsifier, and the concentrate is diluted with emulsifier-containing water to the desired concentration.
# Chinese cabbage (Brassica pekinesis) leaf-disks are sprayed with a preparation of the active ingredient of the desired concentration. Once dry, the leaf disks are infested with mustard beetle larvae (Phaedon cochleariae).
# After the specified period of time, mortality in % is determined. 100% means that all beetle larvae have been killed and 0% means that none of the beetle larvae have been killed.
# Myzus persicae = assay: In vivo protective test on Myzus persicae (MYZUPE); conditions: Chinese cabbage leaf-disks infected with green peach aphid, sprayed; concentration not given
# Experimental: In vivo Protective Test on Myzus persicae (MYZUPE)
# as §1
# Chinese cabbage (Brassica pekinesis) leaf-disks infected with all instars of the green peach aphid (Myzus persicae), are sprayed with a preparation of the active ingredient at the desired concentration.
# After the specified period of time, mortality in % is determined. 100% means that all aphids have been killed; 0% means that none of the aphids have been killed.
# Tetranychus urticae = assay: In vivo protective test on Tetranychus urticae (TETRUR); conditions: French bean infested with two spotted spidermite, sprayed; concentration not given
# Experimental: In vivo Protective Test on Tetranychus urticae (TETRUR)
# as §1
# French bean (Phaseolus vulgaris) which are heavily infested with all stages of the two spotted spidermite (Tetranychus urticae), are sprayed with a preparation of the active ingredient at the desired concentration.
# After the specified period of time, mortality in % is determined. 100% means that all spider mites have been killed and 0% means that none of the spider mites have been killed.
# [2] = HPLC, 0.1% aqueous formic acid and acetonitrile, 40° C., pH 2.3
# [3] = measured at pH = 4 (footnote a)
"logPa [1, 2]",SMILES,other results
2.49,Cc1cc(Oc2ccnc(Oc3ccc(C(F)(F)F)cc3)n2)c(C)cc1N=CN1CCCCC1 [Compound 88],
1.82,"CCN(C)C=Nc1cc(C)c(Oc2ncc(Cl)c(N(C)CC)n2)cc1C [Compound 89, N′-[4-({5-chloro-4-[ethyl(methyl)amino]pyrimidin-2-yl}oxy)-2,5-dimethyl-phenyl]-N-ethyl-N-methylimidoformamide]",chromatographic logP ([1]; pH 2.3): 1.82
,CCN(C)C=Nc1cc(C)c(Oc2nccc(C(F)(F)F)n2)cc1C [Compound 90],"logPa [1, 3]: 0.22^a"
,CCN(C)C=Nc1cc(C(C)C)c(Oc2nccc(C(F)(F)F)n2)cc1C [Compound 92],"logPa [1, 3]: 1.10^a"
1.19,CCN(C)C=Nc1cc(C)c(Oc2ncc(C)c(C)n2)cc1C [Compound 93],
1.4,CCCN(C)C=Nc1cc(C)c(Oc2ncc(C)c(C)n2)cc1C [Compound 94],
1.32,CCN(C)C=Nc1cc(C)c(Oc2ncc(Cl)cn2)cc1C [Compound 95],
1.48,CCCN(C)C=Nc1cc(C)c(Oc2ncc(Cl)cn2)cc1C [Compound 96],
1.41,Cc1cc(Oc2ncc(Cl)cn2)c(C)cc1N=CN(C)C(C)C [Compound 97],
1.7,CCCN(C)C=Nc1cc(C)c(Oc2nccc(C(F)(F)F)n2)cc1C [Compound 98],
1.98,CCN(C)c1nc(Oc2cc(C)c(N=CN(C)C(C)C)cc2C)ncc1Cl [Compound 99],
1.95,CCCN(C)C=Nc1cc(C)c(Oc2ncc(Cl)c(N(C)CC)n2)cc1C [Compound 100],
1.93,CCN(C)c1nc(Oc2cc(C)c(N=CN3CCCCC3)cc2C)ncc1Cl [Compound 101],
1.82,CCN(C)C=Nc1cc(C)c(Oc2nccc(Oc3ccccc3)n2)cc1C [Compound 102],
2.13,CCN(C)C=Nc1cc(C)c(Oc2nccc(Oc3cccc(Cl)c3)n2)cc1C [Compound 103],
,"Cc1cc(Oc2ccnc(N(C)c3ccccc3)n2)c(C)cc1N [[4-(4-Amino-2,5-dimethyl-phenoxy)-pyrimidin-2-yl]-methyl-phenyl-amine]",chromatographic logP ([1]; pH 2.3): 1.72

SMILES,"logPa [1, 2]",other results
CCCN(C)C=Nc1cc(C)c(Oc2ccnc(Oc3cccc(Cl)c3C)n2)cc1C [Compound 18],2.21,activity (mortality) (Phaedon cochleariae): good activity
CCCN(C)C=Nc1cc(C)c(Oc2ccnc(Oc3ccccc3)n2)cc1C [Compound 36],1.87,activity (mortality) (Myzus persicae): good activity
CCN(C)C=Nc1cc(C)c(Oc2ccnc(N(C)C)n2)cc1C [Compound 37],0.66,activity (mortality) (Tetranychus urticae): good activity
Cc1cc(Oc2cc(C)c(N=CN(C)C(C)C)cc2C)nc(Cl)n1 [Compound 41],1.57,activity (mortality) (Myzus persicae): good activity
CCN(C)C=Nc1cc(C)c(Oc2ccnc(Oc3cccc(Cl)c3)n2)cc1C [Compound 65],2.04,activity (mortality) (Myzus persicae): good activity
